In patent US20060067991A1 (priority 2004, published 2006):

How the values were obtained:
[1] = test system: enzymes produced by S. aureus MN8; test: Breakdown of test compounds by enzymes produced by S. aureus MN8, GC/MS of culture fluid; type: in vitro ADME; conditions: concentrations of b130; for course of the concentration of the dominant compound over time: GC/MS at 3, 6, 9 and 24 hours; for dominant compound found in the culture fluid: GC/MS, undiluted solutions at 3, 6, 9 and 24 hours
Protocol: (§1) The test compounds, in the desired concentrations, were placed in 100 mL of a growth medium in a sterile, 500 mL Corning Fleaker (Fisher Scientific, Pittsbury, Pa.). The growth medium and inoculum were prepared as in Example 1.
(§2) The test compounds were added to the growth medium in the amount necessary to obtain the desired final concentration.
(§3) Each fleaker was inoculated with the amount of inoculum determined as described above. The fleakers were capped with sterile aluminum foil and incubated at 35° C. in atmospheric air in a Lab-Line orbital water bath (available from VWR Scientific Products, McGaw Park, Ill.) at 180 rpm. Fifteen milliliter samples were removed at 3, 6, 9, and 24 hours. The optical density (595 nm) of the culture fluid was determined and the culture fluid collected at 24 hours was assayed for the number of colony forming units of S. aureus MN8 using standard plate count procedures.
In preparation for analysis of the integrity of the test compounds, the culture fluid was centrifuged at 3000 rpm at 2-10° C. for 15 minutes. The supernatant was filter sterilized through an AUTOVIAL 5 syringeless filter, […] pore size (available from Whatman, Inc., Clifton, N.J.). The resulting fluid was frozen at −70° C. in a FISHERBRAND (12 mm×75 mm) polystyrene culture tube (Fisher Scientific, Pittsburgh, Pa.) until chemical analysis could be performed.
Using an Agilent Technologies 5973N GC/MS, analysis was performed on undiluted solutions at 3, 6, 9, and 24 hours to evaluate the ability of S. aureus MN8 to breakdown the test compounds. Based on the analysis, the control sample, which had no test compounds added, comprised mostly acetic acid at all time intervals.

[2] = test system: enzymes produced by S. aureus MN8; test: Breakdown of test compounds by S. aureus MN8, liquid chromatography of culture fluid; type: in vitro ADME; conditions: 6 hour and 24 hour samples, UV 230 nm
Protocol: as §1, §2, §3
In preparation for analysis of the integrity of the test compounds, the culture fluid was centrifuged at 3000 rpm at 2-10° C. for 15 minutes. […]
Additional analysis of the 6 hour and 24 hour samples was conducted by liquid chromatography. […] The dilutions were then analyzed using an ion exclusion column to achieve the separation. Detection of the compounds was accomplished through UV absorbance at 230 nm.

| SMILES | course of the concentration of the dominant compound over time [1] | dominant compound found in the culture fluid [1] | breakdown to the active species [2] |
| --- | --- | --- | --- |
| CC(C)CC(NC(=O)c1ccccc1)C(=O)O (racemic) [N-benzoyl-DL-leucine, N-Benzoyl-DL-Leucine] | decreasing concentration over time | benzoic acid | breakdown to benzoic acid |
| OCc1ccccc1 [Benzyl alcohol, benzyl alcohol] | decreased over time | benzyl alcohol |  |
| O=C(O)c1ccccc1 [benzoic acid] | decreased over time | benzoic acid |  |
